Literature values as cited in article PMC10356740 (Journal of sleep research, 2023).

How the values were obtained:
OX2R = details: read-out: EC50 on OX2R; ref Kimura et al., 2019; cited from earlier work
OX1R = details: OX2R over OX1R; ref Kimura et al., 2019; cited from earlier work
[1] = Phase 2; led Takeda to suspend dosing; cited from earlier work
orexin/ataxin-3 mice = details: chronic dosing for up to 14 days; ref Ishikawa et al., 2020; cited from earlier work
Hcrt-neuron ablated mice = details: ref Kimura et al., 2019; cited from earlier work
wild-type mice = details: oral, 5h into the light period, normal sleep phase; ref Ishikawa et al., 2019; cited from earlier work

SMILES: CC(C)(O)C(=O)N1CC[C@H](NS(C)(=O)=O)[C@@H]1Cc1cccc(-c2cc(F)cc(F)c2)c1F.CC(C)(O)C(=O)N1CC[C@H](NS(C)(=O)=O)[C@@H]1Cc1cccc(-c2cc(F)cc(F)c2)c1F.O.O.O [TAK-994]
- EC50 (OX2R): 19 nM
- selectivity against OX1R (OX1R): > 700 fold
- Safety [1]: a safety signal emerged
- Sleep rebound (orexin/ataxin-3 mice): without causing a sleep rebound
- Wakefulness after chronic dosing (orexin/ataxin-3 mice): wake-promoting effects
- Cataplectic episodes (Hcrt-neuron ablated mice): suppressing cataplectic episodes
- Time spent in wake (Hcrt-neuron ablated mice): increased time spent in wake
- Wake maintenance (Hcrt-neuron ablated mice): improved wake maintenance
- Wakefulness (wild-type mice): promoted wakefulness
